The subject of data set [1] is Mycobacterium tuberculosis. Description: Antitubercular activity against Mycobacterium bovis BCG ATCC 35743 dormant stage by nitrate reductase based two-fold dilution assay. The class given is functional. The conditions noted are these: BCG str. ATCC 35743.
A short description of data set [2]: (§1) Growth inhibition of human HeLa cells by MTT assay. The class given is cell-based. Conditions: HeLa cells.
The next data set concerns HeLa. The description is as §1. The conditions noted are these: hela. It is filed as cell-based.
In data set [3] the test system is Mycobacterium tuberculosis. Put plainly: Growth inhibition of Mycobacterium bovis BCG ATCC 35743 at 10 ug/ml by nitrate reductase based two-fold dilution assay relative to control. The class given is functional. Conditions: BCG str. ATCC 35743, read-out: GI.
The test system of data set [4] is Mycobacterium tuberculosis. Put plainly: Antitubercular activity against Mycobacterium tuberculosis H37Ra ATCC 25177 dormant stage by XTT dye based two-fold dilution method. It is filed as functional.
Data set [5] relates to Mycobacterium tuberculosis. Description: Growth inhibition of Mycobacterium tuberculosis H37Ra ATCC 25177 at 30 ug/ml by XTT dye based two-fold dilution method relative to control. Conditions: read-out: GI. It is filed as functional.
Data set [6] in a line: (§2) Growth inhibition of human PANC1 cells by MTT assay. The class given is cell-based, PANC-1. The conditions noted are these: PANC-1 cells.
The subject of a further data set is PANC-1. The data set is described as §2. The class given is cell-based. The conditions noted are these: panc-1.
The subject of data set [7] is Mycobacterium tuberculosis. Description: Growth inhibition of Mycobacterium bovis BCG ATCC 35743 at 1 ug/ml by nitrate reductase based two-fold dilution assay relative to control. The class given is functional. Conditions: BCG str. ATCC 35743, read-out: GI.
Data set [8] relates to Mycobacterium tuberculosis. Description: Growth inhibition of Mycobacterium bovis BCG ATCC 35743 at 30 ug/ml by nitrate reductase based two-fold dilution assay relative to control. The class given is functional. Conditions: BCG str. ATCC 35743, read-out: GI.
Data set [9] concerns Mycobacterium tuberculosis. Put plainly: Growth inhibition of Mycobacterium tuberculosis H37Ra ATCC 25177 at 10 ug/ml by XTT dye based two-fold dilution method relative to control. The class given is functional. Conditions: read-out: GI.
The subject of another data set is A549. Put plainly: (§3) Growth inhibition of human A549 cells by MTT assay. It is filed as cell-based. Conditions: a549.
Data set [10] is described as follows: as §3. Conditions: A549 cells. The class given is cell-based.
Data set [11] has as its system Mycobacterium tuberculosis. Put plainly: Growth inhibition of Mycobacterium tuberculosis H37Ra ATCC 25177 at 3 ug/ml by XTT dye based two-fold dilution method relative to control. It is filed as functional. Conditions: read-out: GI.
Data set [12] relates to Bacillus subtilis. Put plainly: Antibacterial activity against Bacillus subtilis NCIM 2162 measured after 12 hrs. It is filed as functional. Conditions: NCIM 2162, 12 h.
The test system of data set [13] is Pseudomonas fluorescens. Description: Antibacterial activity against Pseudomonas fluorescens NCIM 2059 measured after 8 hrs. It is filed as functional. The conditions noted are these: NCIM 2059, 8 h.
Data set [14] concerns Pseudomonas fluorescens. Description: Growth inhibition of Pseudomonas fluorescens NCIM 2059 at 1 ug/ml measured after 8 hrs relative to control. It is filed as functional. Conditions: NCIM 2059, 8 h, read-out: GI.
In data set [15] the test system is Staphylococcus aureus. Description: Growth inhibition of Staphylococcus aureus NCIM 2602 at 30 ug/ml measured after 12 hrs relative to control. The class given is functional. The conditions noted are these: NCIM 2602, 12 h, read-out: GI.
Data set [16] concerns Bacillus subtilis. Put plainly: Growth inhibition of Bacillus subtilis NCIM 2162 at 10 ug/ml measured after 12 hrs relative to control. The class given is functional. The conditions noted are these: NCIM 2162, 12 h, read-out: GI.
Data set [17] has as its system Staphylococcus aureus. Description: Growth inhibition of Staphylococcus aureus NCIM 2602 at 10 ug/ml measured after 12 hrs relative to control. The class given is functional. Conditions: NCIM 2602, 12 h, read-out: GI.
Data set [18] deals with Pseudomonas fluorescens. Put plainly: Growth inhibition of Pseudomonas fluorescens NCIM 2059 at 30 ug/ml measured after 8 hrs relative to control. The class given is functional. The conditions noted are these: NCIM 2059, 8 h, read-out: GI.
The test system of data set [19] is Staphylococcus aureus. Put plainly: Growth inhibition of Staphylococcus aureus NCIM 2602 at 1 ug/ml measured after 12 hrs relative to control. It is filed as functional. The conditions noted are these: NCIM 2602, 12 h, read-out: GI.
Data set [20] deals with Staphylococcus aureus. Description: Antibacterial activity against Staphylococcus aureus NCIM 2602 measured after 12 hrs. It is filed as functional. The conditions noted are these: NCIM 2602, 12 h.
The subject of data set [21] is Escherichia coli. Description: Antibacterial activity against Escherichia coli NCIM 2576 measured after 8 hrs. It is filed as functional. Conditions: NCIM 2576, 8 h.
For data set [22], the system named is Pseudomonas fluorescens. Description: Growth inhibition of Pseudomonas fluorescens NCIM 2059 at 10 ug/ml measured after 8 hrs relative to control. The class given is functional. Conditions: NCIM 2059, 8 h, read-out: GI.
In data set [23] the test system is Escherichia coli. Put plainly: Growth inhibition of Escherichia coli NCIM 2576 at 30 ug/ml measured after 8 hrs relative to control. The conditions noted are these: NCIM 2576, 8 h, read-out: GI. It is filed as functional.
Data set [24] has as its system Escherichia coli. Description: Growth inhibition of Escherichia coli NCIM 2576 at 1 ug/ml measured after 8 hrs relative to control. The conditions noted are these: NCIM 2576, 8 h, read-out: GI. The class given is functional.
The test system of data set [25] is Bacillus subtilis. Put plainly: Growth inhibition of Bacillus subtilis NCIM 2162 at 30 ug/ml measured after 12 hrs relative to control. The class given is functional. Conditions: NCIM 2162, 12 h, read-out: GI.
Data set [26] deals with Bacillus subtilis. Description: Growth inhibition of Bacillus subtilis NCIM 2162 at 1 ug/ml measured after 12 hrs relative to control. It is filed as functional. The conditions noted are these: NCIM 2162, 12 h, read-out: GI.
The subject of data set [27] is Escherichia coli. Put plainly: Growth inhibition of Escherichia coli NCIM 2576 at 10 ug/ml measured after 8 hrs relative to control. Conditions: NCIM 2576, 8 h, read-out: GI. It is filed as functional.

In brackets after ≈: the same amount, converted by molar mass. Some results are limits rather than exact numbers.

As to `CO[C@H]1/C=C/O[C@@]2(C)Oc3c(C)c(O)c4c(O)c(c(/C=N/N5CCN(C)CC5)c(O)c4c3C2=O)NC(=O)/C(C)=C\C=C\[C@H](C)[C@H](O)[C@@H](C)[C@@H](O)[C@@H](C)[C@H](OC(C)=O)[C@@H]1C` [RIFAMPIN], the IC50 in data set [1] was 0.04 µM; in data set [4] it was 0.0024 µM. Moreover, the MIC90 came to 0.98 µM (≈ 0.806 µg/mL) in data set [1] and 0.91 µM (≈ 0.749 µg/mL) in [4]. The GI50 in [2], in data set [6] and in data set [10] was above 100 µg/mL throughout. The GI90 with HeLa, in the data set with PANC-1 and in the data set on A549 was above 100 µg/mL each time. Besides, the inhibition of growth at 10 µg/mL was 96.8% in data set [3] and 98% in data set [9]. The inhibition of growth at 30 µg/mL in data set [5] stood at 99.5%; in [8] it was 99%. The inhibition of growth at 1 µg/mL in data set [7] amounted to 94.6%. Besides, in data set [11], the inhibition of growth at 3 µg/mL is 96.4%.

On to `Cc1nc(-c2ccccc2)oc1-c1csc(-c2ccc(F)c(Cl)c2)n1`, for which the IC50 in [1] and in data set [4] was above 100 µM in each case. Further, the MIC90 in [1] and in data set [4] was above 100 µM in each case. The MIC against Bacillus subtilis [12], in the data set on Pseudomonas fluorescens [13], against Staphylococcus aureus [20] and with Escherichia coli [21] was above 100 µM each time. Also, the inhibition of growth at 1 µg/mL amounted to 69.8% in the data set on Pseudomonas fluorescens [14]; 70.9% with Staphylococcus aureus [19]; 16% in data set [7]; 65% in the data set with Escherichia coli [24]; 62% in the data set with Bacillus subtilis [26]. In addition, the inhibition of growth at 30 µg/mL is 88.5% in the data set with Staphylococcus aureus [15]; 30% in data set [5]; 89.6% with Pseudomonas fluorescens [18]; 88% with Escherichia coli [23]; 34% in data set [8]; 85.6% with Bacillus subtilis [25]. Besides, the inhibition of growth at 10 µg/mL amounted to 80.8% with Bacillus subtilis [16]; 80% with Staphylococcus aureus [17]; 33% in data set [3]; 77.1% in the data set with Pseudomonas fluorescens [22]; 21% in data set [9]; 74.3% in the data set on Escherichia coli [27]. The inhibition of growth at 3 µg/mL in data set [11] came out at 19%.

Turning to `Cc1nc(-c2ccccc2)oc1-c1csc(-c2ccc(F)cc2)n1`, the IC50 in [1] and in [4] was above 100 µM each time. Besides, the MIC90 in data set [1] and in data set [4] was above 100 µM each time. Further, the MIC in the data set with Bacillus subtilis [12], in the data set on Pseudomonas fluorescens [13], in the data set on Staphylococcus aureus [20] and against Escherichia coli [21] was above 100 µM each time. For the same compound, the inhibition of growth at 1 µg/mL with Pseudomonas fluorescens [14] was 31.8%; with Staphylococcus aureus [19], 34.6%; in [7] it was 11%; in the data set on Escherichia coli [24] it was 38.4%; with Bacillus subtilis [26] it was 37.7%. Besides, the inhibition of growth at 30 µg/mL came out at 60.5% with Staphylococcus aureus [15]; 13% in data set [5]; 61% with Pseudomonas fluorescens [18]; 58.5% in the data set with Escherichia coli [23]; 27% in data set [8]; 60.6% in the data set with Bacillus subtilis [25]. The inhibition of growth at 10 µg/mL with Bacillus subtilis [16] was determined as 49.4%; in the data set with Staphylococcus aureus [17], 41.7%; in data set [3], 16%; in the data set with Pseudomonas fluorescens [22] it was 45.1%; in [9], 13%; in the data set on Escherichia coli [27], 47.2%. Besides, the inhibition of growth at 3 µg/mL in data set [11] stood at 8%.

`Cc1nc(-c2ccc(F)cc2)oc1-c1csc(-c2ccc(F)c(Cl)c2)n1`: the IC50 in data set [1] and in [4] was above 100 µM each time. The MIC90 in data set [1] and in data set [4] was above 100 µM in each case. Further, the MIC in the data set with Bacillus subtilis [12], with Pseudomonas fluorescens [13], against Staphylococcus aureus [20] and in the data set on Escherichia coli [21] was above 100 µM each time. Besides, the inhibition of growth at 1 µg/mL was determined as 44.3% in the data set on Pseudomonas fluorescens [14]; 45.7% in the data set with Staphylococcus aureus [19]; 21% in data set [7]; 45.7% in the data set on Escherichia coli [24]; 41.2% with Bacillus subtilis [26]. The inhibition of growth at 30 µg/mL with Staphylococcus aureus [15] amounted to 63%; in [5], 13%; in the data set on Pseudomonas fluorescens [18] it was 65.8%; in the data set with Escherichia coli [23], 64.2%; in [8], 29%; in the data set on Bacillus subtilis [25], 69.4%. Moreover, the inhibition of growth at 10 µg/mL came out at 55.6% with Bacillus subtilis [16]; 55.2% in the data set on Staphylococcus aureus [17]; 23% in data set [3]; 56.2% with Pseudomonas fluorescens [22]; 11% in data set [9]; 55.9% in the data set on Escherichia coli [27]. Also, the inhibition of growth at 3 µg/mL in data set [11] turned out to be 6%.

On to `CC(=O)O[C@H]1C(=O)[C@@]2(C)[C@H]([C@H](OC(=O)c3ccccc3)[C@]3(O)C[C@H](OC(=O)[C@H](O)[C@@H](NC(=O)c4ccccc4)c4ccccc4)C(C)=C1C3(C)C)[C@]1(OC(C)=O)CO[C@@H]1C[C@@H]2O` [PACLITAXEL], for which the GI90 in the data set with HeLa is 0.075 µg/mL (≈ 0.0878 µM); in the data set with PANC-1, 5.715 µg/mL (≈ 6.69 µM); with A549, 0.0706 µg/mL (≈ 0.0827 µM).

For the origin of these results see ChEMBL document CHEMBL4024727, “Synthesis and antimycobacterial screening of new thiazolyl-oxazole derivatives” (Eur J Med Chem, 2017).
